Tests used:
[1] = Diffusivity test (Petri dish 50 cm in front of the test subject, intensity rating); settings: scale 1-9 (1=odorless to 9=very strong); 0.5 g in Petri dish, 50 cm from test subject, 20-25° C.
Text: 0.5 g of the odiferous substances to be tested are each weighed in a Petri dish and sealed with the lid. The Petri dish is placed 50 cm in front of the test subject (the distance is marked on the table before the test commences).
The lid is then removed from the Petri dish and a stopwatch is simultaneously started by the test subject. The test subject stops the time immediately they perceive the odor. The test subject assesses the intensity of the sample on a scale of 1=odorless to 9=very strong. The stop time and the intensity are noted on the test sheet.
Each sample is evaluated by the test subject three times. In order to be certain that the result is not distorted, all windows and doors must be shut. The room is at normal temperature (20-25° C.). […] As a rule a minimum of 8 participants evaluate the sample.

[2] = Olfactory description of the individual compounds; settings: pure compound
Text: The olfactory descriptions of the individual compounds are as follows: […]

[3] = Threshold value in air (odor perception threshold, sample bag with gas stream); settings: equilibrium approximately 18 hours at ambient temperature; as a rule 8 test subjects
Protocol: The odiferous substance to be tested is evaporated in a defined sampling system and then assessed sensorially with regard to the perception threshold. The sampling system comprises the sample bag and a gas stream outlet. A defined quantity of the desired odiferous substance is squirted into the bag. The equilibrium time after filling with the sample is approximately 18 hours at ambient temperature; then the content of the bag is presented to the test subject by means of a constant gas stream. At the first discernable olfactory impression a response button is pressed. The odor threshold concentration is achieved when in the next dilution stage the olfactory impression is confirmed by repeated pressing of the response button. The concentration of the sample is increased between the previous and the next samples by a factor of 2.
The assessment of the threshold value in air is measured against a standard and as a rule 8 test subjects take part in the sensorial evaluation. The participants have no anosmia in respect of the samples to be investigated.

[4] = Olfactory evaluation of perfume oils with and without 4-decyl pyridine dosed into products
Text: The composition with 4-n-decyl pyridine also has a fresher radiance overall.
Furthermore, the composition as a whole appears to be more harmonious and rounded.

| Structure (SMILES) | Diffusivity [1] | olfactory description [2] | Threshold value in air [3] [ppm] | further results |
| --- | --- | --- | --- | --- |
| CCCCCCCCCCc1ccncc1 [4-decyl pyridine] | 8.1 | valuable marine character prized and sought after by perfumists | 0.014 | olfactory effect in perfume oil ([4]; 0.001% in perfume oil F2, 12% perfume oil in ethanol (fine fragrance)): intensifies the transparent fresh head note; olfactory effect in perfume oil ([4]; 0.005% in perfume oil A2, 0.3% perfume oil in all-purpose cleaner, versus A1): extreme intensification of the marine-mossy note; olfactory effect in perfume oil (booster effect) ([4]; 0.01% in perfume oil P2, 0.3% perfume oil in washing powder, versus P1): intensification of the lily of the valley and the fruity notes to a quite exceptional extent; olfactory effect in perfume oil ([4]; 0.02% in perfume oil D2, 0.5% perfume oil in shower gel): boosts (intensifies) the watery-fresh head note of the perfume oil composition; olfactory effect in perfume oil ([4]; 0.05% in perfume oil S2, 0.5% perfume oil in shampoo): intensifies (at a dosing of 0.5% of the perfume oil in the shampoo) the fruity peach/apricot character; olfactory effect in perfume oil ([4]; 0.07% in perfume oil C2, 1.2% perfume oil in soap, versus C1): enormous intensification of the fresh characteristic; olfactory effect in perfume oil ([4]; 1.0% in perfume oil W2, 0.6% perfume oil in fabric conditioner): greatly increases the sought-after violet character |
| CCCCCCCCCCCCc1ccncc1 [4-n-dodecyl pyridine] | – | Marine (watery) note, reminiscent of seaweed | – | – |
| CCCCCCCCCc1ccncc1 [4-n-nonyl pyridine, 4-nonyl pyridine] | – | distinctive odor of the sea | – | – |
| CCCCCCCCc1ccncc1 [4-n-octyl pyridine, 4-octyl pyridine] | – | very intensive marine (watery) odor with an ozone note | – | – |
| CCCCCCCCCCCc1ccncc1 [4-n-undecyl pyridine, 4-undecyl pyridine] | – | marine character, combining an aldehyde-like note with slight echoes of mandarin | – | – |
| CC(C)=CCCC(C)=CCCc1ccncc1 [Maritima ®, 4-(4,8-dimethyl-3,7-nonadienyl)-pyridine, reference compound] | 3.4 | – | 0.155 | – |

— patent US8865634B2, “4-alkyl substituted pyridines as odiferous substances” (Symrise AG, priority 2008, dated 2014)
